For this experiment, the target named is T1, Human GLP-1 receptor (Homo sapiens, UniProt P43220).
T1 construct: expressed in transfected cells
Briefly: Measurement of GLP-1 receptor agonist activity (cAMP assay). The note with it: for Emax: CHO-K1, hGLP-1R/CHO-K1 cells, read-out: Emax(%); for EC50: cAMP increase, 37° C. 1 hour. The experiment is classed as cell-based. An outline of the steps: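 Agonism measured as cAMP accumulation by time-resolved FRET immunoassay in CHO-K1 cells stably expressing human GLP-1 receptor. Cells treated for 1 h at 37 °C with compound and forskolin (400 μM stock), in buffer containing the PDE inhibitors IBMX (0.1 mM) and RO20-1724 (0.2 mM).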

Where [1] appears, read: cAMP, 100% = human GLP-1 (7-36) at 2 nM, 0% = DMSO only.

The Emax is the size of the effect at its maximum, as opposed to the concentration needed. The term EC50 denotes the concentration giving half of the maximal effect. Read a low EC50 as a more potent agent.

T1 sequence (P43220 24-463): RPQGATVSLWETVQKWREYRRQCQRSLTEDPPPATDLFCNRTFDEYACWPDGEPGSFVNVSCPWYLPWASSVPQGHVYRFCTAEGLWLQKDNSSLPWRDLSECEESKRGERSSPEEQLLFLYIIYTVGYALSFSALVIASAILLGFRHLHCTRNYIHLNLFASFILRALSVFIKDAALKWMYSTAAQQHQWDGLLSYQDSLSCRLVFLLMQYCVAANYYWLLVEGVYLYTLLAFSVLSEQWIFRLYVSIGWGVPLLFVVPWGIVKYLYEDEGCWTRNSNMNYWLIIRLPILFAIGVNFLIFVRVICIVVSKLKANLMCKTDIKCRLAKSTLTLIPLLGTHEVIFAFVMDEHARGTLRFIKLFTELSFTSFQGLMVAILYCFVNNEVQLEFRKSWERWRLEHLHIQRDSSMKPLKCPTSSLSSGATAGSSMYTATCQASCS

In the case of `O=C(O)c1ccc2nc(CN3CCc4cc(C(F)(F)F)c(OCc5ccc(Cl)cc5C(F)(F)F)cc4C3)n(C[C@@H]3CCO3)c2c1` [Compound I-100], under setting [1], the Emax is 90.7%. The compound also returned an EC50 (hGLP-1R/CHO-K1 cells) of 95.2 nM. For `O=C(O)c1ccc2nc(CN3CCc4cc(C(F)(F)F)c(OCc5c(F)cc(Cl)cc5F)cc4C3)n(C[C@@H]3CCO3)c2c1` [Compound I-101], the Emax under setting [1] stood at 113%. For the same compound, where the note is “hGLP-1R/CHO-K1 cells”, the EC50 stood at 2.23 nM. The corresponding values for `O=C(O)c1ccc2nc(CN3CCc4cc(C(F)(F)F)c(OCc5ccc(C6CC6)cc5)cc4C3)n(C[C@@H]3CCO3)c2c1` [Compound I-102] are 106% and 5.09 nM. With `N#Cc1ccc(COc2cc3c(cc2C(F)(F)F)CCN(Cc2nc4ccc(C(=O)O)cc4n2C[C@@H]2CCO2)C3)cc1` [Compound I-103], the Emax under setting [1] is 113%. The EC50 (hGLP-1R/CHO-K1 cells) was 5.6 nM. Consider `COc1ccc(COc2cc3c(cc2C(F)(F)F)CCN(Cc2nc4ccc(C(=O)O)cc4n2C[C@@H]2CCO2)C3)cc1` [Compound I-104], for which, under setting [1], the Emax was 102%. Further, the EC50 (hGLP-1R/CHO-K1 cells) amounted to 4.78 nM.

For the compound `O=C(O)c1ccc2nc(CN3CCc4cc(C(F)(F)F)c(OCc5ccc(F)cc5F)cc4C3)n(C[C@@H]3CCO3)c2c1` [Compound I-106], the Emax under setting [1] is 101%. This compound gave an EC50 (hGLP-1R/CHO-K1 cells) of 6.88 nM. With `O=C(O)c1ccc2nc(CN3CCc4cc(C(F)(F)F)c(OCc5c(F)cc(F)cc5F)cc4C3)n(C[C@@H]3CCO3)c2c1` [Compound I-107], the Emax under setting [1] came out at 101%. This compound also had an EC50 (hGLP-1R/CHO-K1 cells) of 3.5 nM. The corresponding values for `Cc1cc(C(=O)O)cc2c1nc(CN1CCc3cc(C(F)(F)F)c(OCc4ccc(Cl)cc4F)cc3C1)n2C[C@@H]1CCO1` [Compound I-108] are 108% and 8.33 nM.

Consider `O=C(O)c1ccc2nc(CN3CCc4cc(C(F)(F)F)c(OCc5ccc(Cl)cc5F)nc4C3)n(C[C@@H]3CCO3)c2c1` [Compound I-110], for which the Emax under setting [1] stood at 114%. With `C[C@H]1c2cc(OCc3ccc(C#N)cc3)c(C(F)(F)F)cc2CCN1Cc1nc2ccc(C(=O)O)cc2n1C[C@@H]1CCO1` [Compound I-111], under setting [1], the Emax was found to be 126%. This compound displayed an EC50 (hGLP-1R/CHO-K1 cells) of 2.51 nM. The corresponding values for `C[C@H]1c2cc(OCc3ccc(C#N)cc3)c(C(F)(F)F)cc2CCN1Cc1nc2c(F)cc(C(=O)O)cc2n1C[C@@H]1CCO1` [Compound I-112] are 114% and 1.1 nM. With `C[C@H]1c2cc(OCc3ccc(C#N)cc3)c(C(F)(F)F)cc2CCN1Cc1nc2ccc(C(=O)O)c(F)c2n1C[C@@H]1CCO1` [Compound I-113], under setting [1], the Emax amounted to 124%. The compound further registered an EC50 (hGLP-1R/CHO-K1 cells) of 1.46 nM. For `C[C@H]1c2cc(OCc3c(F)cc(Cl)cc3F)c(C(F)(F)F)cc2CCN1Cc1nc2ccc(C(=O)O)cc2n1C[C@@H]1CCO1` [Compound I-114] the same measures were 132% and 0.604 nM. For `C[C@H]1c2cc(OCc3c(F)cc(Cl)cc3F)c(C(F)(F)F)cc2CCN1Cc1nc2ccc(C(=O)O)nc2n1C[C@@H]1CCO1` [Compound I-115], the Emax under setting [1] was determined as 124%. Also, where the note is “hGLP-1R/CHO-K1 cells”, the EC50 worked out at 0.538 nM. For the compound `C[C@H]1c2cc(OCc3ccc(Cl)cc3Cl)c(C(F)(F)F)cc2CCN1Cc1nc2ccc(C(=O)O)nc2n1C[C@@H]1CCO1` [Compound I-118], under setting [1], the Emax turned out to be 113%. Moreover, where the note is “hGLP-1R/CHO-K1 cells”, the response was half-maximal at 0.658 nM (EC50). The corresponding values for `COc1cc(C(=O)O)cc2c1nc(CN1CCc3cc(C(F)(F)F)c(OCc4ccc(Cl)cc4F)cc3C1)n2C[C@@H]1CCO1` [Compound I-119] are 119% and 0.569 nM. With `O=C(O)c1cc(OC(F)F)c2nc(CN3CCc4cc(C(F)(F)F)c(OCc5ccc(Cl)cc5F)cc4C3)n(C[C@@H]3CCO3)c2c1` [Compound I-120], the Emax under setting [1] was determined as 103%. The compound also gave an EC50 (hGLP-1R/CHO-K1 cells) of 2.43 nM. Take `C[C@H]1c2cc(OCc3ccc(F)cc3)c(C(F)(F)F)cc2CCN1Cc1nc2c(F)cc(C(=O)O)cc2n1C[C@@H]1CCO1` [Compound I-121]: the Emax under setting [1] worked out at 119%. This compound gave an EC50 (hGLP-1R/CHO-K1 cells) of 1.21 nM. For `C[C@H]1c2cc(OCc3ccc(F)cc3)c(C(F)(F)F)cc2CCN1Cc1nc2ccc(C(=O)O)c(F)c2n1C[C@@H]1CCO1` [Compound I-122] the same measures were 97% and 1.22 nM. The corresponding values for `C[C@H]1c2cc(OCc3c(F)cc(F)cc3F)c(C(F)(F)F)cc2CCN1Cc1nc2ccc(C(=O)O)cc2n1C[C@@H]1CCO1` [Compound I-124] are 102% and 1.71 nM.

On to `C[C@H]1c2cc(OCc3c(F)cc(F)cc3F)c(C(F)(F)F)cc2CCN1Cc1nc2ccc(C(=O)O)c(F)c2n1C[C@@H]1CCO1` [Compound I-126], for which the Emax under setting [1] is 99.7%. The “Emax(%)” value (hGLP-1R/CHO-K1 cells, cAMP, 100% = human GLP-1 (7-36) at 2 nM, 0% = DMSO only) was determined as 98.7%. Consider `O=C(O)c1ccc2nc(Cc3cc(F)c4nc(C(F)(F)F)c(OCc5ccc(Cl)cc5F)nc4c3)n(C[C@@H]3CCO3)c2c1` [Compound I-127], for which, under setting [1], the maximum response (Emax) was found to be 111%. A half-maximal response (hGLP-1R/CHO-K1 cells) (EC50) required 1.15 nM. As to `O=C(O)c1ccc2nc(Cc3cc4nc(OCc5ccc(Cl)cc5F)c(C(F)(F)F)nc4cc3F)n(C[C@@H]3CCO3)c2c1` [Compound I-128], the maximum response (Emax) under setting [1] is 81.3%. Moreover, a half-maximal effect (hGLP-1R/CHO-K1 cells) (EC50) was put at 40.3 nM. For `C[C@H]1c2cc(OCc3c(F)cc(Cl)cc3F)c(C(F)(F)F)cc2CCN1Cc1nc2c(F)cc(C(=O)O)cc2n1C[C@@H]1CCO1` [Compound I-129] the same measures were 122% and 0.329 nM. The corresponding values for `C[C@H]1c2cc(OCc3c(F)cc(Cl)cc3F)c(C(F)(F)F)cc2CCN1Cc1nc2ccc(C(=O)O)c(F)c2n1C[C@@H]1CCO1` [Compound I-130] are 139% and 0.307 nM. Turning to `Cc1c(Cc2nc3ccc(C(=O)O)cc3n2C[C@@H]2CCO2)ccc2nc(C(F)(F)F)c(OCc3ccc(Cl)cc3F)nc12` [Compound I-132], the Emax under setting [1] stood at 105%. Also, the EC50 (hGLP-1R/CHO-K1 cells) was found to be 0.881 nM. The corresponding values for `O=C(O)c1cc(F)c2nc(CN3CCc4cc(C(F)(F)F)c(OCc5ccc(Cl)cc5F)cc4C3)n(C[C@@H]3CCO3)c2c1F` [Compound I-134] are 119% and 1.18 nM. As for `O=C(O)c1ccc2nc(CN3CCc4cc(C(F)(F)F)c(OCc5ccc(C(F)(F)F)cn5)cc4C3)n(C[C@@H]3CCO3)c2c1` [Compound I-135], the Emax under setting [1] was 91%. In addition, the half-maximal effective concentration (EC50) (hGLP-1R/CHO-K1 cells) came out at 27.6 nM. The corresponding values for `Cc1ccc(COc2cc3c(cc2C(F)(F)F)CCN(Cc2nc4ccc(C(=O)O)cc4n2C[C@@H]2CCO2)C3)nc1` [Compound I-136] are 107% and 5.73 nM. The corresponding values for `Cc1csc(COc2cc3c(cc2C(F)(F)F)CCN(Cc2nc4ccc(C(=O)O)cc4n2C[C@@H]2CCO2)C3)n1` [Compound I-137] are 114% and 5.56 nM. The corresponding values for `Cc1nc(COc2cc3c(cc2C(F)(F)F)CCN(Cc2nc4ccc(C(=O)O)cc4n2C[C@@H]2CCO2)C3)cs1` [Compound I-138] are 94.3% and 68.8 nM. As to `COc1cc(Cl)ccc1COc1cc2c(cc1C(F)(F)F)CCN(Cc1nc3ccc(C(=O)O)cc3n1C[C@@H]1CCO1)C2` [Compound I-139], the Emax under setting [1] was found to be 117%. The EC50 (hGLP-1R/CHO-K1 cells) was found to be 1.23 nM. The corresponding values for `Cc1cc(Cl)ccc1COc1cc2c(cc1C(F)(F)F)CCN(Cc1nc3ccc(C(=O)O)cc3n1C[C@@H]1CCO1)C2` [Compound I-140] are 96% and 18 nM. As to `O=C(O)c1ccc2nc(CN3CCc4cc(C(F)(F)F)c(OCc5ccc(OC(F)F)c(F)c5)cc4C3)n(C[C@@H]3CCO3)c2c1` [Compound I-143], the Emax under setting [1] turned out to be 101%. Moreover, for the setting “hGLP-1R/CHO-K1 cells”, a half-maximal response (EC50) required 25.3 nM.

On to `O=C(O)c1cc(C(F)F)c2nc(CN3CCc4cc(C(F)(F)F)c(OCc5ccc(Cl)cc5F)cc4C3)n(C[C@@H]3CCO3)c2c1` [Compound I-146], for which, under setting [1], the maximal effect (Emax) was 102%. Under “hGLP-1R/CHO-K1 cells”, this compound gave an EC50 of 40.3 nM. For `Cc1cn(C)nc1COc1cc2c(cc1C(F)(F)F)CCN(Cc1nc3ccc(C(=O)O)cc3n1C[C@@H]1CCO1)C2` [Compound I-147] the same measures were 88% and 99.3 nM. Take `CCn1ccc(COc2cc3c(cc2C(F)(F)F)CCN(Cc2nc4ccc(C(=O)O)cc4n2C[C@@H]2CCO2)C3)n1` [Compound I-148]: the Emax under setting [1] came out at 95%. Further, under “hGLP-1R/CHO-K1 cells”, the EC50 is 32.5 nM. On to `CC(C)n1ccc(COc2cc3c(cc2C(F)(F)F)CCN(Cc2nc4ccc(C(=O)O)cc4n2C[C@@H]2CCO2)C3)n1` [Compound I-149], for which the Emax under setting [1] came out at 93.7%. This compound returned an EC50 (hGLP-1R/CHO-K1 cells) of 101 nM.

`O=C(O)c1ccc2nc(CN3CCc4cc(C(F)(F)F)c(OCc5ccn(C(F)F)n5)cc4C3)n(C[C@@H]3CCO3)c2c1` [Compound I-150]: under setting [1], the Emax came to 92%. Further, for the setting “hGLP-1R/CHO-K1 cells”, the EC50 was 18.3 nM. For `O=C(O)c1ccc2nc(CN3CCc4cc(C(F)(F)F)c(OCc5ccn(CC(F)(F)F)n5)cc4C3)n(C[C@@H]3CCO3)c2c1` [Compound I-151], the Emax under setting [1] was determined as 93.7%. A half-maximal response (hGLP-1R/CHO-K1 cells) (EC50) required 124 nM. For `O=C(O)c1ccc2nc(CN3CCc4cc(C(F)(F)F)c(OCc5ccccc5OC(F)F)cc4C3)n(C[C@@H]3CCO3)c2c1` [Compound I-152] the same measures were 111% and 5.88 nM. For `COc1cc(F)c(COc2cc3c(cc2C(F)(F)F)CCN(Cc2nc4ccc(C(=O)O)cc4n2C[C@@H]2CCO2)C3)c(F)c1` [Compound I-153] the same measures were 104% and 5.34 nM. The corresponding values for `O=C(O)c1ccc2nc(CN3CCc4cc(C(F)(F)F)c(OCc5ccccc5F)cc4C3)n(C[C@@H]3CCO3)c2c1` [Compound I-154] are 97.7% and 38.4 nM. Regarding `O=C(O)c1ccc2nc(CN3CCc4cc(C(F)(F)F)c(OCc5c(F)cccc5F)cc4C3)n(C[C@@H]3CCO3)c2c1` [Compound I-155], under setting [1], the Emax turned out to be 93.7%. Under “hGLP-1R/CHO-K1 cells”, a half-maximal response (EC50) required 25.9 nM.

Source of the values: patent publication US20240217966A1, “PHARMACEUTICAL COMPOSITION CONTAINING GLP-1 RECEPTOR AGONIST HAVING FUSED RING” (Shionogi & Co., Ltd., priority 2021, published 2024).
